Reference: US4512986A, “Progrestationally active steroids” (priority 1983, dated 1985)
Like-named read-outs stand apart in the source and are kept apart here.

Experiments:
[1] = tested on: estrogen-primed immature rabbits; conditions: cited from earlier work
[2] = tested on: endometrium of estrogen-primed ovariectomized or climacteric women; conditions: cited from earlier work
[3] = tested on: cycling rats; conditions: literature; cited from earlier work
[4] = biological target: T1, Cytosol Progesterone Receptor of the Estrogen-primed Immature Rabbit Uterus (Oryctolagus cuniculus, UniProt P06186); experiment: Relative binding affinity for progesterone receptor (competition with 3H-progesterone); set-up: species or system rabbit (New Zealand White); conditions: 16-18 hour incubation, progesterone = 100
T1 construct: cytosol progesterone receptor of the estrogen-primed immature rabbit uterus; tissue Dutchland Laboratories, Inc., Denver, Pa (animals); host or cells: uterus cytosol of estradiol-treated immature female New Zealand White rabbits
T1 sequence (P06186 1-930): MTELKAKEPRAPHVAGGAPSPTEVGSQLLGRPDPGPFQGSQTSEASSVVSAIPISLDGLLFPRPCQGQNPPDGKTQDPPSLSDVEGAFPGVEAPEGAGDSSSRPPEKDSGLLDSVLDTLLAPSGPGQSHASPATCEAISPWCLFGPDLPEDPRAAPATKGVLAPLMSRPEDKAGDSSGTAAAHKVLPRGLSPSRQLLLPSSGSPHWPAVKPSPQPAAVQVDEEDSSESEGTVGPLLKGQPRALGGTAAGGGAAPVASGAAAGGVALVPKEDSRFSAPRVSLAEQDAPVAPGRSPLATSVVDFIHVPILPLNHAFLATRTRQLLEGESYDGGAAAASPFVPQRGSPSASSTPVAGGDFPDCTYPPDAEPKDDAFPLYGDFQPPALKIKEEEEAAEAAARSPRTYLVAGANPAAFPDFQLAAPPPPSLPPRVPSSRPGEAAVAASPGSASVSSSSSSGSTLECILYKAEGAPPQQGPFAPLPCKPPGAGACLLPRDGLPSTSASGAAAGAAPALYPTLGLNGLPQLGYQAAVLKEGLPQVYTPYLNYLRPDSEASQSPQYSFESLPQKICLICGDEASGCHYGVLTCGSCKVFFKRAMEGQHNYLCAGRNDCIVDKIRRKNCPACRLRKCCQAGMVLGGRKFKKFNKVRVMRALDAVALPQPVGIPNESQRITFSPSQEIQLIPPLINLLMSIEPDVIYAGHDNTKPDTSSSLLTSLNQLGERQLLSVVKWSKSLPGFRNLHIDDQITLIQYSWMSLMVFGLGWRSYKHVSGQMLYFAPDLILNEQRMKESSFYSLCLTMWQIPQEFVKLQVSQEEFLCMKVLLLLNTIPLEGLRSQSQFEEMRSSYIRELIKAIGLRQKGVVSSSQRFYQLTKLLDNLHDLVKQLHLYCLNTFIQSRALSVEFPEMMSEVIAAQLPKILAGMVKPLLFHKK
Description: RBA values recorded at 0° C. after short incubation times (e.g., 2 hr) mainly reflect differences in the association rate constants of the competing ligands, whereas those measured after long incubation times (e.g., 16 to 24 hr) and/or higher temperatures predominantly are influenced by differences in the dissociation rate constants of the competing ligands. RBA's determined after short incubation times primarily reflect the association of the competitor compared to the natural hormone. Conversely, RBA's measured after long incubation times reflect the dissociation rate of the competitor compared to the natural hormone.
The assay components are combined, allowed to equilibrate, and unbound radioactivity removed by charcoal adsorption.
Animal species. Immature female New Zealand White rabbits weighing 0.8 to 1.0 kg (Dutchland Laboratories, Inc., Denver, Pa).
Pretreatment. Subcutaneous treatment with 15 μg 17β-estradiol/0.6 ml sesame oil each morning (0830 to 0930 hr) for three days. Animals sacrificed 24 hr after final injection.
Tissue. Uterus; each uterus weighed about 1.0 g and two or three uteri were pooled for each assay.
Buffer. (A) 0.01M TES, pH 7.4, 1 mM EDTA, 0.012M thioglycerol and 30% glycerol for cytosol preparation and ^3 H-steroid, unlabeled hormone and compound solutions. (B) 0.01M TES, pH 7.4, 1 mM EDTA and 0.012M thioglycerol for charcoal solution.
Homogenization. Five or six 5-second bursts with 30 second cooling periods between bursts using Brinkman Polytron Pt. 10 at 3.5 rheostat setting.
Temperature. 0°-4° C. for all steps.
Centrifugation. 45,000 rpm for 1 hr, 50 Ti rotor, Beckman L8-80 ultracentrifuge.
Incubation. 16-18 hr at 4°-6° C.
Concentations. 1×10^-10 M to 1×10^-5 M (7 concentrations).
Method. Charcoal adsorption method used to remove unbound radioactivity. Five-tenths ml of dextran-coated charcoal (0.5% Norit A and 0.05% dextran T-70) added to all tubes except total radioactivity tubes (0.5 ml buffer [B] added), tubes vortexed 3-5 sec, allowed to sit for 10 minutes and centrifuged 10 minutes at 2000 rpm in Beckman TJ-6 centrifuge at 0°-4° C.
Data Interpretation. […] The relative binding affinity (RBA) of each compound was calculated by using the following equation. [formula] where

[5] = in vivo; cited from earlier work
[6] = tested on: curettage specimens of endometrial cancer patients; conditions: i.m. twice weekly 3-7 weeks after polyestradiol phosphate 80 mg; all 12 patients; cited from earlier work
[7] = tested on: uterine endometrium of estrone-primed immature rabbits; experiment: Clauberg assay (progestational activity, McPhail); format: in vivo, rabbit (New Zealand White); conditions: sc
[8] = tested on: cycling rats; experiment: Blockade of ovulation in rats; format: in vivo, rat (Charles River CD); conditions: for No. Rats Ovulated (of rats treated) / No. of Oviductal Eggs in Rats that Ovulated (X ± S.D.): single sc
Excerpt: The treated rats were sacrificed on the morning of expected estrus and eggs, if present, were flushed from the oviducts and counted. | *This assay employs cycling Charles River CD rats. For methods refer to | Beattie, C. W. and A. Corbin, Endocrinology 97, 885, 1975. […] | diestrus. Rats were sacrificed 43 to 44 hr later on the morning of | expected estrus. Eggs, if present, were flushed from oviducts and counted | under a stereomicroscope.

[9] = tested on: androgen target organs of castrate immature male rats; experiment: Anti-androgenic activity in the castrate immature rat assay; format: in vivo
Description: The oral anti-androgenic activity of 6-methyl-6-dehydro-17α-ethynylprogesterone was evaluated in the castrate immature male rat assay [Lerner et al., Proc. Soc. […] The assay is briefly described in the footnotes to Table 11.
*This assay employs castrate immature rats. For methods refer to Lerner,
L. J., A. Bianchi and A. Borman, Proc. Soc.
**Groups of rats (7/group) were given daily injections of 0.3 ml sesame
oil (control) or compound (in 0.3 ml sesame oil) for 7 days. Some groups
also concurrently received progestational compounds by the sc or oral
route of administration in order to evaluate antiandrogenic activity. One
day after the final doses, the animals were sacrificed and the androgen
target organs indicated were weighed.
***Statistically significant (p < 0.05) lower organ weights versus the
testosterone, sc, (400 μg/rat/day) group as determined by Analysis of
Variance coupled with Duncan's Multiple Range Test.

[10] = biological target: T1, Cytosol Progesterone Receptor of the Estrogen-primed Immature Rabbit Uterus; conditions: relative to progesterone = 100; literature; cited from earlier work
[11] = general knowledge; cited from earlier work
[12] = sc 25 μg/rat daily + testosterone sc 400
[13] = sc 100 μg/rat daily + testosterone sc 400
[14] = sc 400 μg/rat daily + testosterone sc 400

C#C[C@]1(O)CC[C@H]2[C@@H]3CCC4=CC(=O)CC[C@@H]4[C@H]3CC[C@@]21CC (relative stereo) [(±)Norgestrel]
Threshold or effective dose, Clauberg Assay ([1]; oral): 0.03-0.1 mg/animal
Threshold or effective dose, Clauberg Assay ([1]; s.c. (i.m.)): 0.03 mg/animal
Threshold or effective dose, Kaufman Assay ([2]; oral): 12 mg/cycle
effectiveness in suppressing ovulation relative to progesterone (Beattie and Corbin 1975), in words [3]: five times as effective as progesterone

CC(=O)O[C@]1(C(C)=O)CC[C@H]2[C@@H]3CCC4=CC(=O)CC[C@]4(C)[C@H]3CC[C@@]21C [17α-Acetoxyprogesterone (Prodox ®), 17α-Acetoxyprogesterone, reference compound]
RBA ([4]; Assay 5): 122%
RBA ([4]; Assay 6): 114%
thromboembolic episodes, in words [5]: higher rate of thromboembolic episodes

CCCCCC(=O)O[C@]1(C(C)=O)CC[C@H]2[C@@H]3CCC4=CC(=O)CC[C@]4(C)[C@H]3CC[C@@]21C [17α-hydroxyprogesterone caproate]
inhibition of nucleic acid synthesis, in words [6]: Significant inhibition of nucleic acid synthesis

CCCCCC(=O)O[C@]1(C(C)=O)CC[C@H]2[C@@H]3CCC4=CC(=O)CC[C@@H]4[C@H]3CC[C@@]21C [19-nor-17α-hydroxyprogesterone caproate]
inhibition of nucleic acid synthesis, in words [6]: Significant inhibition of nucleic acid synthesis

CC(=O)[C@H]1CC[C@H]2[C@@H]3CCC4=CC(=O)CC[C@]4(C)[C@H]3CC[C@]12C [Progesterone]
Uterine Weight (X ± S.D.) ([7]; 50 μg/rabbit daily): 1.09 ± 0.09 g
Uterine Weight (X ± S.D.) ([7]; 100 μg/rabbit daily): 1.64 ± 0.23 g
ovulation, in words ([8]; 500 μg progesterone, 100, 250 or 500 μg 17α-ethynylprogesterone): ovulation was blocked in most rats
ovulation, in words ([8]; 100 or 250 μg progesterone, 50 μg 17α-ethynylprogesterone): ovulated in a normal fashion
No. Rats Ovulated (of rats treated) ([8]; 100 μg/rat): 5/5
No. of Oviductal Eggs in Rats that Ovulated (X ± S.D.) ([8]; 100 μg/rat): 7.8 ± 3.8
No. Rats Ovulated (of rats treated) ([8]; 250 μg/rat): 4/5
No. of Oviductal Eggs in Rats that Ovulated (X ± S.D.) ([8]; 250 μg/rat): 7.0 ± 3.8
No. Rats Ovulated (of rats treated) ([8]; 500 μg/rat): 1/4
No. of Oviductal Eggs in Rats that Ovulated (X ± S.D.) ([8]; 500 μg/rat): 9.0
Levator Ani weight (X ± S.D.) [9, 12]: 54 ± 15 mg
Seminal Vesicles weight (X ± S.D.) [9, 12]: 157 ± 19 mg
Ventral Prostate weight (X ± S.D.) [9, 12]: 71 ± 28 mg
Levator Ani weight (X ± S.D.) [9, 13]: 58 ± 15 mg
Ventral Prostate weight (X ± S.D.) [9, 13]: 80 ± 27 mg
Levator Ani weight (X ± S.D.) [9, 14]: 59 ± 14 mg
Seminal Vesicles weight (X ± S.D.) [9, 14]: 162 ± 26 mg
Ventral Prostate weight (X ± S.D.) [9, 14]: 60 ± 26 mg
anti-androgenic activity, in words ([9]; with testosterone sc 400 μg/rat/day, doses up to 400 μg/rat/day (progestagen oral; progesterone sc)): inactive
RBA (Kontula et al. 1975) [10]: 100
Threshold or effective dose, Clauberg Assay ([1]; oral): 10.0 mg/animal
Threshold or effective dose, Clauberg Assay ([1]; s.c. (i.m.)): 0.5 mg/animal
Threshold or effective dose, Kaufman Assay ([2]; i.m.): 200 mg/cycle
oral progestational activity, in words [11]: only weakly active when taken orally
